Source: article PMC13198932, “Pyrazolone-based ERO1 inhibitors in ERO1-driven triple-negative breast cancer and SEPN1-related myopathy: Structure–activity relationship and therapeutic potential” (Pharmacological research, 2025)

Assays:
[1] = test system: E0771 tumors; assay: E0771 breast tumor model in syngeneic C57BL/6 J mice (tumor size, VEGFA ELISA, flow cytometry); format: in vivo; conditions: 10 mg/kg i.p. once daily for 10 days
Method: A 1:1 mixture of polyethylene glycol 400 (PEG400) (Merck, 8.17003.1000) and Cremophor EL (Sigma, C5135–500G) was used to dissolve I29 at a concentration of 10 mM and served as the vehicle control. Initially, I29 was suspended in PEG400, after which Cremophor EL was added to the solution. The mixture was then heated to 80 °C until the compound was fully dissolved. Both the compound and vehicle were diluted 1:10 in physiological saline immediately prior to administration to mice at a dose of 10 mg/kg.
E0771 cells (1 × 10^6) were injected subcutaneously into both flanks of 12 female C57BL/6 J mice. Once the primary tumors reached a volume of 100–200 mm^3 (palpable), the mice were randomized into two groups and treated with either I29 or vehicle (Cremophor and PEG400). I29 was administered intraperitoneally (i.p.) once daily for 10 consecutive days at a dose of 10 mg/kg. Twenty-four hours after the final injection, the mice were euthanized. Tumors were excised, weighed, and processed for flow cytometry analysis of immune cells and immune checkpoints, including PD-1 and PD-L1, as well as for VEGFA quantification by ELISA.
The procedure was described in detail in [29]. Briefly, primary subcutaneous tumors derived from E0771 cells were minced into small fragments and enzymatically digested with 0.5 mg/mL Collagenase IV (Sigma) and 40 μg/mL DNase I in RPMI 1640 medium for 30 min at 37°C. The resulting cells were resuspended in HBSS containing 0.5 % FBS and incubated at 4°C for 20 min with the following antibodies (BioLegend): CD45 BV650 (clone 104; 0.6/100), CD11b PerCP-Cy5.5 (clone M1/70; 0.3/100), Ly6C BV421 (clone HK1.4; 0.6/100), Ly6G AF700 (clone 1A8; 0.6/100), F4/80 PE-Cy7 (clone BM8; 0.3/100), PD-L1 APC (clone 10 F.9G2; 1/100), CD3 BV605 (clone 145–2C11; 0.6/100), CD4 AF700 (clone GK1.5; 0.6/100), CD8 BV785 (clone 53–6.7; 0.6/100), and PD1 (clone 29.F1A12; 0.6/100). Cell viability was determined using the LIVE/DEAD™ Fixable Near IR Viability Kit (Invitrogen, L34981). Samples were acquired using a Cytoflex LX flow cytometer with CytExpert software, and data were analyzed with Kaluza 2.0 software (Beckman Coulter).
Within the CD45 + leukocyte population, monocytic myeloid-derived suppressor cells (M) MDSCs (CD11b+Ly6G−Ly6Chi), polymorphonuclear granulocytic (PMN−) MDSCs (CD11b+Ly6G+Ly6Clo), and tumor-associated macrophages (TAMs; CD11b+Ly6Clo/−F4/80 +) were identified. Total T lymphocytes (CD3 +) were gated within CD45 + population, and frequencies of CD3 +CD4 + and CD3 +CD8 +T cells subsets were quantified. PD1 expression was evaluated on CD4 + and CD8 + T cells, while PD-L1 expression was assessed on MDSCs and TAMs. Expression levels are reported as geometric mean fluorescence intensity (gMFI).
For VEGFA measurements in E0771 tumors, tumors were weighed, and 50 mg of each was isolated and lysed in PBS containing protease inhibitors but no EDTA. Following homogenization, samples were frozen overnight and then subjected to repeated freeze-thaw cycles the next day. Insoluble debris was removed by high-speed centrifugation, and the supernatant was quantified using the BCA assay. A total of 190 μg of protein was then analyzed using a mouse VEGF Quantikine ELISA Kit (MMV00, R&D Systems).

[2] = test system: WT and SEPN1 KO myotubes; assay: TMRM staining of mitochondrial membrane potential in WT and SEPN1 KO myotubes; format: cell-based, mice; conditions: 1–5 μM, 16 h treatment
Method: Muscle stem cells were isolated from muscles of 1-month-old wild-type (WT) and SEPN1 knockout (KO) mice using a tissue dissociation protocol with the gentleMACS™ Octo Dissociator with Heaters (Miltenyi Biotec, Bergisch Gladbach, Germany), followed by magnetic depletion. […]
After 16 h of treatment with EN460 or I29 in differentiation medium, the culture medium was removed and replaced with the TMRM staining solution for the assessment of mitochondrial membrane potential. […] TMRM fluorescence was acquired at λexc 561 nm / λem 595 nm by a Nikon A1 confocal system equipped with an Okolab stage incubator (CO2 5 %, 37°C, 90 % humidity) immediately after TMRM and over a 10-minute baseline period with 65 s time interval. […] Data were analyzed using ImageJ. Briefly, background noise was set to NaN and the remaining signal quantified as mean pixel gray values. Data were expressed as ΔF/F0 (F0= mean of baseline signal).

[3] = test system: WT and SEPN1 KD C2C12 muscle cells; assay: Real-time quantitative RT-PCR of ER stress markers BIP, CHOP, ERO1; format: cell-based; conditions: 2 μM
Description: RNA from WT and SEPN1KD C2C12 was reverse-transcribed and analyzed using the Applied Biosystems’ real-time PCR System and the ΔΔCt method. Relative gene expression in cells was normalized to Actin mRNA levels as in [27].

Question: For `O=C1/C(=C/c2ccc(-c3ccccc3)o2)C(C(F)(F)F)=NN1c1ccccc1F` [I29], which tolerability ([1]; E0771 tumor-bearing mice) is on record?
Answer: well tolerated, with no overt signs of toxicity or weight loss observed

Question: What about the “PD-1 expression on CD4+ and CD8+ T cells” value ([1]; flow cytometry of tumors) of the same molecule?
Answer: remained unchanged

Question: What about the “PD-L1 expression in monocytic myeloid-derived suppressor cells (M-MDSCs)” value ([1]; flow cytometry of tumors) of the same molecule?
Answer: statistically significant reduction

Question: And the “VEGFA levels in tumors (ELISA)” value ([1]; vs vehicle)?
Answer: reduced

Question: What about the tumor volume ([1]; vs vehicle) of the same molecule?
Answer: no significant differences

Question: And the “tumor weight (ex vivo)” value ([1]; vs vehicle)?
Answer: slight reduction in tumor weight

Question: What about the “TMRM fluorescence (mitochondrial membrane potential)” value [2] of the same molecule?
Answer: significant increase in TMRM fluorescence

Question: And the CHOP expression [3]?
Answer: downregulate CHOP expression
